From US6153605A, “Arylsecocholadiene derivatives” (priority 1997, dated 2000)
Read-outs that look alike come from different tables or passages of the source.

What was measured:
normal mouse skin [1] = experiment: Activity assay hyperproliferative disorders: epidermal thickening (acanthosis) in hairless mice, oral; assay type: in vivo, hairless mice (Moro hr/hr); conditions: for ED50: Mus musculus, read-out: ED50 (dose causing halfmaximal epidermal thickening)
Description: Activity Assay Hyperproliferative Disorders
(§1) Orally administered vitamin D analogues can lead to epidermal thickening (acanthosis) in hairless mice. […] Compounds of formula I were tested for 4 days at different dosages in order to detect compounds which show this epidermal effect at subtoxic and non-toxic doses (dosage leading to slight or no weight loss). […] The calcitriol data were obtained from animals treated for three days.
(§2) Hairless mice (Moro hr/hr) received daily administrations of the test compound in arachis oil by gavage for 4 days, using 2-5 different dosages (3 fold increments; 2 animals per dosage group). The mice were sacrificed at day 5 and skin biopsies were taken, fixed in formalin and treated for histological evaluation. The epidermal thickness was measured at standard magnification using an occular grid. Daily measurements of body weight allows to judge toxicity (calcemic liability) and determine the non-toxic dose level defined as the dose which is tolerated without weight loss.
ED50 : dose (μg/kg) causing halfmaximal epidermal thickening
TI shift: shift in "therapeutic index", is defined as ratio ED50 /HT
for calcitriol divided by the ratio ED50 /HTP for the test compound

[2] = Oral tolerance (calcemic liability) by body weight in hairless mice; design: species or system hairless mice (Moro hr/hr); conditions: mouse, in vivo, oral gavage in arachis oil, daily for 4 days, read-out: HTDp.o. (highest tolerated oral dose without weight loss)
Description: as §1, §2
HTDp.o.: highest tolerated oral dose (μg/kg) without weight loss

normal mouse skin [3] = conditions: known antipsoriatics; cited from earlier work
[4] = 96 h, oral gavage in arachis oil, daily for 4 days

## CC(C#Cc1ccccc1C(C)(C)O)[C@H]1CC[C@H]2/C(=C/C=C3C[C@@H](O)C[C@H](O)C3)CCC[C@]12C (stereo partly drawn) [Example 6, (7E)-(1R,3R)-23-[2-(1-Hydroxy-1-methyl-ethyl)-phenyl]-19,24-dinor-9,10-seco-chola-5,7-dien-22-yne-1,3-diol]
Normal mouse skin [1]; [4]
  ED50: 2.5 mg/kg
Normal mouse skin [1]; oral, 4 days
  ratio ED50/HTD: 63
[2]
  MTD: 0.04 mg/kg

## C=C1/C(=C\C=C2/CCC[C@]3(C)[C@@H]([C@@H](C)C#Cc4cccc(C(C)(C)O)c4)CC[C@@H]23)C[C@@H](O)C[C@@H]1O [Example 14, (5Z,7E)-(1S,3R,20R)-23-[3-(1-Hydroxy-1-methyl-ethyl)-phenyl)-24-nor-9,10seco-chola-5,7,10(19)-trien-22-yne-1,3-diol]
Normal mouse skin [1]; [4]
  ED50: 7 mg/kg
Normal mouse skin [1]; oral, 4 days
  ratio ED50/HTD: 7
[2]
  MTD: 1 mg/kg

## C=C1/C(=C\C=C2/CCC[C@]3(C)[C@@H]([C@@H](C)C#Cc4ccccc4C(C)(C)O)CC[C@@H]23)C[C@@H](O)C[C@@H]1O [Example 16, (5Z,7E)-(1S,3R,20R)-23-[2-(1-Hydroxy-1-methyl-ethyl)-phenyl)-24-nor-9,10-seco-chola-5,7,10(19)-trien-22-yne-1,3-diol]
Normal mouse skin [1]; [4]
  ED50: 10 mg/kg
Normal mouse skin [1]; oral, 4 days
  ratio ED50/HTD: 5
[2]
  MTD: 2 mg/kg

## C=C1/C(=C\C=C2/CCC[C@]3(C)[C@@H]([C@H](C)CCCC(C)(C)O)CC[C@@H]23)C[C@@H](O)C[C@@H]1O [calcitriol, 1,25-dihydroxycholecalciferol, reference compound]
Normal mouse skin [1]; 4 days
  skin effect (epidermal thickening) on 4 days dosing, in words: could not be dosed for 4 days high enough to obtain this skin effect
Normal mouse skin [1]; 72 h, oral, calcitriol treated for three days
  ED50: 0.5 mg/kg
Normal mouse skin [1]; oral, calcitriol treated for three days
  ratio ED50/HTD: 500
Normal mouse skin [3]
  epidermal thickening effect on normal mouse skin, in words: show this effect on normal mouse skin
